Legend:
Assay type in all cases: in vivo, Heterodera schachtii
[1] = system: sugar beet nematode (SBN); experiment: Yield response field trials, CACTUS tolerant sugar beet seeds, seed treatment; conditions: for White Sugar yield/ha: CACTUS tolerant sugar beet, average of nine field trials
Description: (§1) The yield response study illustrates the unexpected increase in yield achieved by using a nematode-antagonistic biocontrol agent with SBN resistant or tolerant varieties. Multiple field trials were conducted across Germany, Czech Republic and Denmark. The results of nine different trials are presented below utilizing seed treatments on sugar beet seeds to combat nematodes.
(§2) The tests presented below were run on both susceptible and SBN tolerant varieties of sugar beet seeds. In particular, the susceptible variety is known by the trade name INVICTA and the tolerant variety is known by the trade name CACTUS. Each trial, on both the susceptible and tolerant variety, was run with a Control check that included no nematicide, a treatment on the seed with Pasteuria nishizawae at about 1×10^6 spores/seed, a treatment on the seed with Pasteuria nishizawae at about 1×10^7 spores/seed, and a treatment on the seed that included a commercial soil applied standard nematicide.
(§3) The results of trails are presented below where yield data has been averaged.
CACTUS Tolerant Sugar Beet Seeds

[2] = system: sugar beet nematode (SBN); experiment: Root and sugar yield field trials, susceptible sugar beet seeds, seed treatment
Description: (§4) The root and sugar yield response study illustrates the unexpected increase in root and sugar yield achieved by using a nematode-antagonistic biocontrol agent with SBN resistant or tolerant varieties. Multiple field trials were conducted across Nebraska, Colorado, and Idaho. The results of four different trials are presented below utilizing seed treatments on sugar beet seeds to combat nematodes.
(§5) The tests presented below were run on both susceptible and SBN tolerant varieties of sugar beet seeds. Each trial, on both the susceptible and tolerant variety, was run with a Control check that included no nematicide, a treatment on the seed with Pasteuria nishizawae at about 5×10^6 spores/seed, a treatment on the seed with Pasteuria nishizawae at about 1×10^7 spores/seed, a treatment on the seed with Pasteuria nishizawae at about 2×10^7 spores/seed and a treatment on the seed with Pasteuria nishizawae at about 4×10^7 spores/seed.
as §3
Susceptible Sugar Beet Seeds

[3] = system: sugar beet nematode (SBN); experiment: Root and sugar yield field trials, tolerant sugar beet seeds, seed treatment; conditions: average of four field trials
Description: as §4, §5, §3
Tolerant Sugar Beet Seeds

[4] = system: sugar beet nematode (SBN); experiment: Yield response field trials, INVICTA susceptible sugar beet seeds, seed treatment
Description: as §1, §2, §3
INVICTA Susceptible Sugar Beet Seeds

[5] = 1 × 10^7 spores/seed, average of four field trials
[6] = 2 × 10^7 spores/seed, average of four field trials
[7] = 4 × 10^7 spores/seed, average of four field trials

Pasteuria nishizawae
White Sugar yield/ha ([1]; seed treatment 1 × 10^6 spores/seed): 12.65 /ha
White Sugar yield/ha ([1]; seed treatment 1 × 10^7 spores/seed): 12.93 /ha
yield compared with commercial standards ([1]; tolerant varieties treated with Pasteuria, statement in words): showed an increase over commercial standards
Root Yield [2, 5]: 19.9 Ton/Acre
White Sugar [2, 5]: 2.5 Ton/Acre
Root Yield [2, 6]: 19.8 Ton/Acre
White Sugar [2, 6]: 2.3 Ton/Acre
Root Yield [2, 7]: 19.5 Ton/Acre
White Sugar [2, 7]: 2.4 Ton/Acre
Root Yield ([2]; 5 × 10^6 spores/seed, average of four field trials): 17.4 Ton/Acre
White Sugar ([2]; 5 × 10^6 spores/seed, average of four field trials (Nebraska, Colorado, Idaho)): 2.0 Ton/Acre
Root Yield ([3]; 1 × 10^7 spores/seed): 27.2 Ton/Acre
White Sugar ([3]; 1 × 10^7 spores/seed): 3.5 Ton/Acre
Root Yield ([3]; 2 × 10^7 spores/seed): 27.2 Ton/Acre
White Sugar ([3]; 2 × 10^7 spores/seed): 3.7 Ton/Acre
Root Yield ([3]; 4 × 10^7 spores/seed): 26.7 Ton/Acre
White Sugar ([3]; 4 × 10^7 spores/seed): 3.5 Ton/Acre
Root Yield ([3]; 5 × 10^6 spores/seed): 26.1 Ton/Acre
White Sugar ([3]; 5 × 10^6 spores/seed): 3.6 Ton/Acre
White Sugar yield/ha ([4]; seed treatment 1 × 10^6 spores/seed, average of nine field trials (Germany, Czech Republic, Denmark)): 11.09 /ha
White Sugar yield/ha ([4]; seed treatment 1 × 10^7 spores/seed, average of nine field trials): 11.20 /ha

Reference: patent US10869481B2, “Method for controlling nematode pests” (Syngenta Participations AG, priority 2014, dated 2020)
